Laboratory results from a compilation of properties of binary mixtures (doi:10.1007/s10953-019-00842-w).

Test: xn = mol fraction of the nth substance listed
Details: 101 kPa

CC1COC(=O)O1 (stereo not given) + CC[n+]1ccn(C)c1.O=S(=O)([O-])C(F)(F)F
x2 = 0
Details	viscosity [mPa·s]
288.15 K	3.53
298.15 K	2.5
303.15 K	2.2
308.15 K	1.97
313.15 K	1.79
318.15 K	1.65
323.15 K	1.538
328.15 K	1.451
333.15 K	1.373
338.15 K	1.307
348.15 K	1.201
353.15 K	1.162

CC[n+]1ccn(C)c1.O=S(=O)([O-])C(F)(F)F + CC1COC(=O)O1
viscosity [mPa·s]
Details	x1 = 0.0999	x1 = 0.1999	x1 = 0.3005	x1 = 0.3998	x1 = 0.5001	x1 = 0.601	x1 = 0.6987	x1 = 0.8004	x1 = 0.8998	x1 = 1
288.15 K	6.25	8.7	–	–	–	24.4	30.7	39.1	46.9	59.2
293.15 K	–	7.33	9.18	12.2	15.69	20.5	25.6	–	38.8	48.6
298.15 K	4.53	6.2	7.76	10.37	13.37	17.6	21.7	–	–	–
303.15 K	–	5.31	6.65	–	11.43	15.01	–	23.1	27.6	–
308.15 K	3.4	4.57	5.77	7.65	–	12.99	16.02	19.9	23.6	29
313.15 K	3.03	4.01	5.07	6.67	8.69	11.33	13.95	17.2	–	–
318.15 K	2.7	–	–	–	–	9.92	12.22	15.08	–	21.5
323.15 K	2.42	3.13	3.94	5.12	6.8	8.79	–	13.15	–	18.6
328.15 K	2.17	–	–	–	–	–	9.52	11.61	13.62	16.5
333.15 K	2.01	2.52	–	4.07	5.53	6.99	–	–	12.12	14.61
338.15 K	1.84	2.28	2.83	3.65	4.99	–	7.59	–	10.74	13.02
343.15 K	–	2.14	2.6	–	4.51	5.75	6.92	8.33	9.66	11.52
348.15 K	1.611	1.97	2.41	3.14	4.14	5.26	6.33	7.61	8.9	10.29
353.15 K	1.57	1.89	–	2.94	3.9	4.9	5.92	7.17	–	–
